Key:
[1] = DPPH˙ radical scavenging by cyclic voltammetry; conditions: for Ered (V): 2nd Ered column; for Ired (μA): 2nd Ired
Protocol: (§1) The antioxidant properties were evaluated in terms of their activity against some free radicals, and other compounds reported in the literature, relevant for this purpose, such as: • ferric ions (Fe^3+)—used to test the reduction of the antioxidant character of the compounds; • DPPH˙ free radical– used to test the scavenging effect of the compounds on this radical; • hydrogen peroxide (H2O2)—used to test the scavenging effect of the synthesized molecules on this compound; • 2,2,6,6-tetramethylpiperidinyl-1-oxy (TEMPO)—used to test the scavenging effect of the synthesized molecules on this compound.
The radical scavenging properties of the novel compounds and the other antioxidants were determined using a stock DPPH˙ radical solution prepared in absolute ethanol. The antioxidant samples were mixed with DPPH˙ solution and HClO4 electrolyte and incubated in the dark for 30 min. The remaining redox activity of DPPH was measured by cycling the potential between −0.7 V and 1.2 V, with a scan rate of 0.1 V/s.
The nitrogen-centered 2-2-diphenyl-1-picrylhydrazyl radical (DPPH˙) based assay is one of the most commonly employed method to evaluate the ability of a compound to scavenge or neutralize free radicals based on the reduction of the radical.
Taking into account the redox activity of DPPH˙, its diminution by an antioxidant can also be followed by CV, which is expected to show changes in the voltammetric peaks. Figure A5 reports the electrochemical study of initial electrooxidation of DPPH˙ and the novel compounds compared to remaining peaks after their incubation for 30 min. The decrease of all the peaks after mixture incubation indicates the partial consumption of DPPH˙.

[2] = system: S. pyogenes ATCC 19615; test: Antimicrobial activity, modified microdilution; type: cell-based; conditions: Streptococcus pyogenes, ATCC19615
Protocol: (§2) For evaluating the antimicrobial activity of the compounds, […] aerobic microbial strains were used: S. aureus ATCC 25923, S. pyogenes ATCC 19615, P. aeruginosa ATCC 27853, S. enterica ISM 83/37, S. typhimurium ATCC 14028, E. coli ATCC 8739, E. coli ATCC 25922, and C. albicans ATCC 102310 obtained from Food Biotechnology Laboratory, Life Sciences Institute, University of Agricultural Sciences, and Veterinary Medicine Cluj Napoca, where the experiment was performed. The antimicrobial activity of the compounds was determined using a modified microdilution technique, and the followed protocol was previously reported.
(§3) The antimicrobial activity of the final compounds, against seven aerobic microbial strains (S. aureus ATCC 25923, S. pyogenes ATCC 19615, P. aeruginosa ATCC 27853, S. enterica ISM 83/37, S. typhimurium ATCC 14028, E. coli ATCC 8739, E. coli ATCC 25922), and a fungal strain (C. albicans ATCC 102310), was determined using a modified microdilution technique.
(§4) The results of the antimicrobial activity evaluation of the compounds, in comparison to norfloxacin and chloramphenicol used as standard antibiotics and fluconazole used as reference antifungal, are depicted in Table 10.

[3] = system: E. coli ATCC 8739; test: Antimicrobial activity, modified microdilution; type: cell-based; conditions: Escherichia coli, ATCC8739
Protocol: as §2, §3, §4

[4] = system: S. typhimurium ATCC 14028; test: Antimicrobial activity, modified microdilution; type: cell-based; conditions: Salmonella enterica
Protocol: as §2, §3, §4

[5] = system: P. aeruginosa ATCC 27853; test: Antimicrobial activity, modified microdilution; type: cell-based; conditions: Pseudomonas aeruginosa, ATCC27853
Protocol: as §2, §3, §4

[6] = system: S. aureus ATCC 25923; test: Antimicrobial activity, modified microdilution; type: cell-based; conditions: Staphylococcus aureus, ATCC25923
Protocol: as §2, §3, §4

[7] = system: S. enterica ISM 83/37; test: Antimicrobial activity, modified microdilution; type: cell-based; conditions: Salmonella enterica, ISM83/37
Protocol: as §2, §3, §4

[8] = system: E. coli ATCC 25922; test: Antimicrobial activity, modified microdilution; type: cell-based; conditions: Escherichia coli, ATCC25922
Protocol: as §2, §3, §4

[9] = Ferric ions (Fe^3+) reducing antioxidant power by cyclic voltammetry
Protocol: The evaluated compounds’ stock solutions used were prepared at a concentration of 5 mM. To test their redox properties, dilutions of 0.5 mM and 2 mM were prepared in 0.1 M HClO4 electrolyte (pH = 1.2). Screen-printed electrodes (SPEs; Metrohm DropSens, Oviedo, Spain) (planar electrodes) with graphite and gold working electrodes were used. Cyclic voltammetry (CV) and differential pulse voltammetry (DPV) were the electrochemical methods applied. The experimental conditions for each test are mentioned near the corresponding data (Appendix A).
as §1
This method is based on the evaluation of the influence of the compound measured by the direct reduction of Fe[(CN)6]^3− to […]. This assay is based on the reduction of Fe^3+ to Fe^2+ due to the action of antioxidants. Based on the electrochemical behavior of the studied compounds, the interaction of Fe^3+ was followed by cyclic voltammetry (CV) via the possible changes of redox peaks characteristic for Fe^3+/Fe^2+ transition after the interaction with antioxidants (if any).
From the voltammogram of potassium ferricyanide it can be observed that the one-electron transfer process Fe^3+/Fe^2+ occurs at 0.247 V/ 0.150 V in acidic media (red) (Figure A1; Table A1).
Each compound presents its characteristic peaks (blue line in each figure).

[10] = TEMPO scavenging by differential pulse voltammetry; conditions: 2 mM TEMPO, one hour incubation, 0.1 M HClO4, DPV
Protocol: as §1
TEMPO (2,2,6,6-tetramethylpiperidine-N-oxyl) is a stable organic nitroxide radical that has been reported to scavenge carbon-centered radicals.
Differential pulse voltammetry (DPV) was then applied in order to evaluate the antioxidant effectiveness of the novel compounds through their ability to scavenge the free radical species.

[11] = compound + DPPH, 30 min, 2nd Eox
[12] = compound + Fe^3+/Fe^2+, 1st Ered
[13] = compound + Fe^3+/Fe^2+, 1st Ired
[14] = compound + Fe^3+/Fe^2+, 2nd Eox
[15] = compound + Fe^3+/Fe^2+, 2nd Iox column
[16] = compound + Fe^3+/Fe^2+, 3rd Iox column
[17] = compound alone 0.5 mM in 0.1 M HClO4, 2nd Iox column
[18] = compound alone 0.5 mM in 0.1 M HClO4, 3rd Iox column

C/C(=N\Nc1nc(C)cs1)c1ccc(O)cc1O [Compound 5a, Dihydroxy-Phenyl-Thiazol-Hydrazinium chloride]
Iox (μA) ([1]; compound + DPPH, 30 min): 13.23 μA | Eox (V) [1, 11]: 0.362 V | Ered (V) ([1]; compound + DPPH, 30 min): 0.188 V | Ired (μA) ([1]; compound + DPPH, 30 min): −5.46 μA | Eox (V) ([1]; compound + DPPH, 30 min, 3rd Eox column): 0.572 V | Iox (μA) ([1]; compound + DPPH, 30 min, 3rd Iox column): 11.81 μA | Eox (V) ([1]; compound + DPPH, after 30 min of reaction, 1st Eox column): 0.218 V | Iox (μA) ([1]; compound + DPPH, after 30 min of reaction, 1st Iox column): 8.68 μA | Iox (μA) ([1]; compound alone): 43.29 μA | Eox (V) ([1]; compound alone, 2nd Eox): 0.339 V | Ered (V) ([1]; compound alone): 0.137 V | Ired (μA) ([1]; compound alone): −9.59 μA | Eox (V) ([1]; compound alone, 3rd Eox column): 0.598 V | Iox (μA) ([1]; compound alone, 3rd Iox column): 20.51 μA | Eox (V) ([1]; compound alone, 4th Eox column): 0.987 V | Iox (μA) ([1]; compound alone, 4th Iox column): 15.5 μA | MIC [2]: > 100 µg/mL | MIC [3]: > 100 µg/mL | MIC [4]: > 100 µg/mL | MIC [5]: 31.2 µg/mL | MIC [6]: > 100 µg/mL | MIC [7]: > 100 µg/mL | MIC [8]: > 100 µg/mL | Eox (V) ([9]; compound 0.5 mM + Fe^3+/Fe^2+ (0.5 mM potassium ferricyanide), 1st Eox column): 0.152 V | Iox (μA) ([9]; compound 0.5 mM + Fe^3+/Fe^2+ (0.5 mM potassium ferricyanide), 1st Iox column): 3.69 μA | Ered (V) [9, 12]: 0.091 V | Ired (μA) [9, 13]: −7.33 μA | Eox (V) [9, 14]: 0.308 V | Ered (V) ([9]; compound + Fe^3+/Fe^2+, 2nd Ered column): 0.323 V | Iox (μA) [9, 15]: 16.21 μA | Ired (μA) ([9]; compound + Fe^3+/Fe^2+, 2nd Ired): −0.99 μA | Iox (μA) [9, 16]: 4.14 μA | Eox (V) ([9]; compound + Fe^3+/Fe^2+, 5th Eox): 0.903 V | Iox (μA) ([9]; compound + Fe^3+/Fe^2+, 5th Iox column): 3.82 μA | Eox (V) ([9]; compound alone 0.5 mM in 0.1 M HClO4, 2nd Eox): 0.308 V | Ered (V) ([9]; compound alone 0.5 mM in 0.1 M HClO4, 2nd Ered column): 0.318 V | Iox (μA) [9, 17]: 8.83 μA | Ired (μA) ([9]; compound alone 0.5 mM in 0.1 M HClO4, 2nd Ired): −1.23 μA | Eox (V) ([9]; compound alone 0.5 mM in 0.1 M HClO4, 3rd Eox column): 0.573 V | Iox (μA) [9, 18]: 5.23 μA | Eox (V) ([9]; compound alone 0.5 mM in 0.1 M HClO4, 5th Eox): 0.997 V | Iox (μA) ([9]; compound alone 0.5 mM in 0.1 M HClO4, 5th Iox column): 9.78 μA | oxidation signal for TEMPO after incubation with the compound [10]: both the signal shift to higher oxidation potentials and its decrease

Br.C/C(=N\Nc1nc(-c2ccc(O)c(C(N)=O)c2)cs1)c1ccc(O)cc1O [Compound 7a, (E)-1-(4-(3-carbamoyl-4-hydroxyphenyl)thiazol-2-yl)-2-(1-(2,4-dihydroxyphenyl)ethylidene)hydrazin-1-ium bromide]
Iox (μA) ([1]; compound + DPPH, 30 min): 9.24 μA | Eox (V) [1, 11]: 0.405 V | Eox (V) ([1]; compound alone 0.5 mM in 0.1 M HClO4, 1st Eox column): 0.205 V | Iox (μA) ([1]; compound alone 0.5 mM in 0.1 M HClO4, 1st Iox column): 3.21 μA | Ered (V) ([1]; compound alone): 0.217 V | Ired (μA) ([1]; compound alone): −5.26 μA | Eox (V) ([1]; compound alone, 3rd Eox column): 0.493 V | Iox (μA) ([1]; compound alone, 3rd Iox column): 3.95 μA | MIC [2]: 31.2 µg/mL | MIC [3]: > 100 µg/mL | MIC [4]: > 100 µg/mL | MIC [5]: 3.9 µg/mL | MIC [6]: 62.4 µg/mL | MIC [7]: > 100 µg/mL | MIC [8]: > 100 µg/mL | Ered (V) [9, 12]: 0.164 V | Ired (μA) [9, 13]: −7.23 μA | Eox (V) [9, 14]: 0.23 V | Iox (μA) [9, 15]: 4.35 μA | Iox (μA) [9, 16]: 1.75 μA | Iox (μA) [9, 17]: 4.37 μA | Iox (μA) [9, 18]: 1.95 μA | oxidation signal for TEMPO after incubation with the compound [10]: does not decrease

— paper PMC8615111, “Phenolic Thiazoles with Antioxidant and Antiradical Activity. Synthesis, In Vitro Evaluation, Toxicity, Electrochemical Behavior, Quantum Studies and Antimicrobial Screening” (Antioxidants, 2021)
